Experiments:
human Edg-1 (S1P1) = target: T1, human Edg-1 (S1P1) (Homo sapiens, UniProt P21453); assay: S1P1 binding assay: inhibition of [33P]-S1P binding to membrane fraction of HEK-293 cells transferred with the human Edg-1 (S1P1) gene; conditions: for inhibition at 10 µM: test compound at 10 μM, inhibition of [33P]-S1P binding to the membrane fraction of HEK-293 cells expressing human Edg-1 (S1P1); for IC50: [33P]-S1P 0.1 nM, human Edg-1 (S1P1) HEK-293 membrane fraction, 1 h at 30° C., read-out: IC50 (concentration at which binding in the absence of the test compound was inhibited by 50%)
T1 construct: expressed in transfected cells; host or cells: HEK-293
Procedure, shortened: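 Membranes from S1P1-transfected HEK-293 cells incubated 1 h at 30° C in pH 7.4 Tris buffer with fatty acid-free BSA, 0.1 nM [33P]-S1P and test compound (0.1% DMSO). Filter-bound radioactivity was counted; inhibition corrected for binding to untransfected-cell membranes, and IC50 derived from concentration series.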

T1 sequence (P21453 whole entry): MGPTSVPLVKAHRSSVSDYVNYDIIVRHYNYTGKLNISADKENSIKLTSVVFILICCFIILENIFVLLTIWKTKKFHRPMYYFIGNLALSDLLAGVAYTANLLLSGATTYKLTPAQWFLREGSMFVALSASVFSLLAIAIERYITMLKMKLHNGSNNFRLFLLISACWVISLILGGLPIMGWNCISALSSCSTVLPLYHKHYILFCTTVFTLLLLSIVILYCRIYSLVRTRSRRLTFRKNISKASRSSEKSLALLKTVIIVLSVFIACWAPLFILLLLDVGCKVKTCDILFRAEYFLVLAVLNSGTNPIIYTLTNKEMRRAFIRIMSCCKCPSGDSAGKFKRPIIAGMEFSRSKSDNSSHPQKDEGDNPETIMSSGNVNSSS

Work on CCn1c(Oc2cccc(C)n2)nnc1[C@@H](C)NS(=O)(=O)c1ccc(Cl)c(Cl)c1 [Compound 71] yielded a melting point of 126 to 135 °C and an inhibition at 10 µM (human Edg-1 (S1P1)) of 99.3%.
CCn1c(Oc2ccc3cccnc3c2)nnc1[C@@H](C)NS(=O)(=O)c1ccc(Cl)c(Cl)c1 [Compound 72] showed a melting point of 198 to 200.5 °C and an inhibition at 10 µM (human Edg-1 (S1P1)) of 99%.
CCn1c(Oc2cccc(N3CCCCC3)c2)nnc1[C@@H](C)NS(=O)(=O)c1ccc(Cl)c(Cl)c1 [Compound 73] gave a melting point of 185 to 187 °C, an IC50 (human Edg-1 (S1P1)) of 2.2 nM and an inhibition at 10 µM (human Edg-1 (S1P1)) of 103%.
CCn1c(Oc2ccc3c(c2)NC(=O)CC3)nnc1[C@@H](C)NS(=O)(=O)c1ccc(Cl)c(Cl)c1 [Compound 74] showed a melting point of 218.5 to 227 °C, an IC50 (human Edg-1 (S1P1)) of 15 nM and an inhibition at 10 µM (human Edg-1 (S1P1)) of 105%.
With CCn1c(Oc2cccc(N3CCC3)c2)nnc1[C@@H](C)NS(=O)(=O)c1ccc(Cl)c(Cl)c1 [Compound 75] the melting point was 177 to 179 °C, the IC50 (human Edg-1 (S1P1)) was at most 10 nM and the inhibition at 10 µM (human Edg-1 (S1P1)) was 95%.
With CCn1c(Oc2cccc(N3C[C@@H](C)O[C@@H](C)C3)c2)nnc1[C@@H](C)NS(=O)(=O)c1ccc(Cl)c(Cl)c1 [Compound 76] the melting point was 151.5 to 153.5 °C, the IC50 (human Edg-1 (S1P1)) was at most 35 nM and the inhibition at 10 µM (human Edg-1 (S1P1)) was 99.2%.
Compound CCn1c(Oc2cc(C(F)(F)F)n(C)n2)nnc1[C@@H](C)NS(=O)(=O)c1ccc(Cl)c(Cl)c1 [Compound 77] has a melting point of 123 to 127 °C and an inhibition at 10 µM (human Edg-1 (S1P1)) of 99.7%.
Work on CCn1c(Oc2ccc3ncccc3c2)nnc1[C@@H](C)NS(=O)(=O)c1ccc(Cl)c(Cl)c1 [Compound 78] yielded a melting point of 178 to 179 °C and an inhibition at 10 µM (human Edg-1 (S1P1)) of 90.7%.
In the case of CCn1c(Oc2cccc(N3CCCC3)c2)nnc1[C@@H](C)NS(=O)(=O)c1ccc(Cl)c(Cl)c1 [Compound 79], the melting point is reported as 190 to 195 °C and the inhibition at 10 µM (human Edg-1 (S1P1)) is reported as 104%.
In the case of CCn1c(Oc2cc(C)nc(C)c2)nnc1[C@@H](C)NS(=O)(=O)c1ccc(Cl)c(Cl)c1 [Compound 80], the melting point is reported as 164 to 165 °C and the inhibition at 10 µM (human Edg-1 (S1P1)) is reported as 87.6%.
CCn1c(Oc2ccc3c(c2)N=S=N3)nnc1[C@@H](C)NS(=O)(=O)c1ccc(Cl)c(Cl)c1 [Compound 81] gave a melting point of 160 to 165 °C and an inhibition at 10 µM (human Edg-1 (S1P1)) of 93.2%.
Compound CCn1c(Oc2cccc(N)c2)nnc1[C@@H](C)NS(=O)(=O)c1ccc(Cl)c(Cl)c1 [Compound 82, N-[(R)-1-[5-(3-Amino-phenoxy)-4-ethyl-4H-[1,2,4]triazol-3-yl]-ethyl]-3,4-dichlorobenzenesulfonamide] has a melting point of 142 to 145 °C and an inhibition at 10 µM (human Edg-1 (S1P1)) of 101%.
In the case of CCn1c(Oc2cccc(N3CCN(CCN(C)C)CC3)c2)nnc1[C@@H](C)NS(=O)(=O)c1ccc(Cl)c(Cl)c1 [Compound 83], the melting point is reported as 170 to 173 °C, the IC50 (human Edg-1 (S1P1)) is reported as 8.1 nM and the inhibition at 10 µM (human Edg-1 (S1P1)) is reported as 101%.
Work on CCn1c(Oc2cccc(NC(C)=O)c2)nnc1[C@@H](C)NS(=O)(=O)c1ccc(Cl)c(Cl)c1 [Compound 84] yielded a melting point of 160 to 165 °C and an inhibition at 10 µM (human Edg-1 (S1P1)) of 100%.
With CCn1c(Oc2cccc(-n3ccnc3)c2)nnc1[C@@H](C)NS(=O)(=O)c1ccc(Cl)c(Cl)c1 [Compound 85] the melting point was 133 to 134 °C and the inhibition at 10 µM (human Edg-1 (S1P1)) was 100%.
CCn1c(Oc2cccc(-n3cccc3)c2)nnc1[C@@H](C)NS(=O)(=O)c1ccc(Cl)c(Cl)c1 [Compound 86, 3,4-Dichloro-N-[(R)-1-[4-ethyl-5-(3-pyrrol-1-phenoxy)-4H-[1,2,4]triazol-3-yl]-ethyl]-benzenesulfonamide] showed a melting point of 176 to 177 °C and an inhibition at 10 µM (human Edg-1 (S1P1)) of 107%.
CCn1c(Oc2cccc(-n3cnnc3)c2)nnc1[C@@H](C)NS(=O)(=O)c1ccc(Cl)c(Cl)c1 [Compound 89] showed a melting point of 101 to 103 °C and an inhibition at 10 µM (human Edg-1 (S1P1)) of 90.3%.
CCn1c(Oc2cccc(NC=O)c2)nnc1[C@@H](C)NS(=O)(=O)c1ccc(Cl)c(Cl)c1 [Compound 90, 3,4-Dichloro-N-[(R)-1-[4-ethyl-5-(3-formylamino-phenoxy)-4H-[1,2,4]triazol-3-yl]-ethyl]-benzenesulfonamide] showed a melting point of 168 to 170 °C and an inhibition at 10 µM (human Edg-1 (S1P1)) of 99%.
Work on CCn1c(Oc2cccc(NC(N)=O)c2)nnc1[C@@H](C)NS(=O)(=O)c1ccc(Cl)c(Cl)c1 [Compound 91, 3,4-Dichloro-N-[(R)-1-[4-ethyl-5-(3-ureido-phenoxy)-4H-[1,2,4]triazol-3-yl]-ethyl]-benzenesulfonamide] yielded a melting point of 137 to 138 °C and an inhibition at 10 µM (human Edg-1 (S1P1)) of 90.6%.
With CCNC(=O)Nc1cccc(Oc2nnc([C@@H](C)NS(=O)(=O)c3ccc(Cl)c(Cl)c3)n2CC)c1 [Compound 92, 3,4-Dichloro-N-((R)-1-[4-ethyl-5-[3-(3-ethylureido)-phenoxy]-4H-[1,2,4]triazol-3-yl]-ethyl)-benzenesulfonamide] the melting point was 118 to 120 °C and the inhibition at 10 µM (human Edg-1 (S1P1)) was 92.1%.
CCn1c(Oc2cccc(N3CCC(O)CC3)c2)nnc1[C@@H](C)NS(=O)(=O)c1ccc(Cl)c(Cl)c1 [Compound 93, 3,4-Dichloro-N-((R)-1-[4-ethyl-5-[3-(4-hydroxy-piperidin-1-yl)-phenoxy]-4H-[1,2,4]triazol-3-yl]-ethyl)-benzenesulfonamide] showed a melting point of 167.5 to 169.5 °C, an IC50 (human Edg-1 (S1P1)) of at most 10 nM and an inhibition at 10 µM (human Edg-1 (S1P1)) of 99.9%.
For CCn1c(Oc2cccc(N3CCN(C(C)C)CC3)c2)nnc1[C@@H](C)NS(=O)(=O)c1ccc(Cl)c(Cl)c1 [Compound 94], the melting point was 190 to 192 °C, the IC50 (human Edg-1 (S1P1)) was at most 10 nM and the inhibition at 10 µM (human Edg-1 (S1P1)) was 106%.
Compound CCn1c(Oc2cc(C)cc(C)n2)nnc1[C@@H](C)NS(=O)(=O)c1ccc(Cl)c(Cl)c1 [Compound 95] has a melting point of 205 to 208.5 °C and an inhibition at 10 µM (human Edg-1 (S1P1)) of 92.4%.
CCn1c(Oc2cc3nc(C)cc(C)n3n2)nnc1[C@@H](C)NS(=O)(=O)c1ccc(Cl)c(Cl)c1 [Compound 96] gave a melting point of 191 to 194 °C and an inhibition at 10 µM (human Edg-1 (S1P1)) of 78.7%.
With CCn1c(Oc2cccc(NC(=O)N(C)C)c2)nnc1[C@@H](C)NS(=O)(=O)c1ccc(Cl)c(Cl)c1 [Compound 97, 3,4-Dichloro-N-((R)-1-[5-[3-(3,3-dimethylureido)-phenoxy]-4-ethyl-4H-[1,2,4]triazol-3-yl]-ethyl)-benzenesulfonamide] the melting point was 158 to 159 °C and the inhibition at 10 µM (human Edg-1 (S1P1)) was 93%.
CCn1c(Oc2cccc(NC(=O)N3CCOCC3)c2)nnc1[C@@H](C)NS(=O)(=O)c1ccc(Cl)c(Cl)c1 [Compound 98] showed a melting point of 143 to 144 °C and an inhibition at 10 µM (human Edg-1 (S1P1)) of 100%.
For CCn1c(Oc2cc(C(C)C)n(C)n2)nnc1[C@@H](C)NS(=O)(=O)c1ccc(Cl)c(Cl)c1 [Compound 99], the melting point was 103 to 105.5 °C, the IC50 (human Edg-1 (S1P1)) was 25 nM and the inhibition at 10 µM (human Edg-1 (S1P1)) was 102%.
CCn1c(Oc2cccc(NS(=O)(=O)N(C)C)c2)nnc1[C@@H](C)NS(=O)(=O)c1ccc(Cl)c(Cl)c1 [Compound 101] showed a melting point of 142 to 143 °C, an IC50 (human Edg-1 (S1P1)) of at most 35 nM and an inhibition at 10 µM (human Edg-1 (S1P1)) of 101%.
CCn1c(Oc2cccc(NS(C)(=O)=O)c2)nnc1[C@@H](C)NS(=O)(=O)c1ccc(Cl)c(Cl)c1 [Compound 102, 3,4-Dichloro-N-[(R)-1-[4-ethyl-5-(3-methanesulfonylamino-phenoxy)-4H-[1,2,4]triazol-3-yl]-ethyl]-benzenesulfonamide] showed a melting point of 117 to 118 °C, an IC50 (human Edg-1 (S1P1)) of at most 35 nM and an inhibition at 10 µM (human Edg-1 (S1P1)) of 104%.
Work on CCn1c(Oc2ccc(F)cc2)nnc1[C@@H](C)NS(=O)(=O)c1ccc(F)c(Cl)c1 [Compound 103] yielded a melting point of 146.5 to 147.5 °C and an inhibition at 10 µM (human Edg-1 (S1P1)) of 91.2%.
In the case of CCn1c(Oc2ccc(F)cc2)nnc1[C@@H](C)NS(=O)(=O)c1ccc(Br)c(Br)c1 [Compound 104], the melting point is reported as 187 to 187.5 °C and the inhibition at 10 µM (human Edg-1 (S1P1)) is reported as 95.2%.
For CCn1c(Oc2cccc(N(C)CCN(C)C)c2)nnc1[C@@H](C)NS(=O)(=O)c1ccc(Cl)c(Cl)c1 [Compound 105], the melting point was 121 to 123 °C, the IC50 (human Edg-1 (S1P1)) was 2.9 nM and the inhibition at 10 µM (human Edg-1 (S1P1)) was 104%.
Compound CCn1c(Oc2cccc(OCCN(C)C)c2)nnc1[C@@H](C)NS(=O)(=O)c1ccc(Cl)c(Cl)c1 [Compound 106] has a melting point of 132 to 134 °C and an inhibition at 10 µM (human Edg-1 (S1P1)) of 110%.
CCn1c(Oc2cccc(N(C(C)C)C(C)C)c2)nnc1[C@@H](C)NS(=O)(=O)c1ccc(Cl)c(Cl)c1 [Compound 107] gave a melting point of 159 to 162 °C, an IC50 (human Edg-1 (S1P1)) of at most 10 nM and an inhibition at 10 µM (human Edg-1 (S1P1)) of 104%.
CCn1c(Oc2cccc(C3CCN(C(C)C)CC3)c2)nnc1[C@@H](C)NS(=O)(=O)c1ccc(Cl)c(Cl)c1 [Compound 108] gave a melting point of 175 to 180 °C, an IC50 (human Edg-1 (S1P1)) of 18 nM and an inhibition at 10 µM (human Edg-1 (S1P1)) of 101%.
CCn1c(Oc2cccc(N3CCN(C)CC3)c2)nnc1[C@@H](C)NS(=O)(=O)c1ccc(F)c(Cl)c1 [Compound 109] gave a melting point of 152 to 153 °C, an IC50 (human Edg-1 (S1P1)) of at most 35 nM and an inhibition at 10 µM (human Edg-1 (S1P1)) of 104%.
Compound CCn1c(Oc2ccc(F)cc2)nnc1[C@@H](C)NS(=O)(=O)c1ccc(Br)c(C)c1 [Compound 110] has a melting point of 187.5 to 188.5 °C and an inhibition at 10 µM (human Edg-1 (S1P1)) of 104%.
Work on CCn1c(Oc2cccc(N3CCN(C)CC3)c2)nnc1[C@@H](C)NS(=O)(=O)c1ccc(Br)c(C)c1 [Compound 111] yielded a melting point of 204 to 205 °C, an IC50 (human Edg-1 (S1P1)) of at most 10 nM and an inhibition at 10 µM (human Edg-1 (S1P1)) of 109%.
In the case of CCn1c(Oc2cccc(N3CCN(C)CC3)c2)nnc1[C@@H](C)NS(=O)(=O)c1ccc(Br)c(Br)c1 [Compound 112], the melting point is reported as 171 to 173 °C, the IC50 (human Edg-1 (S1P1)) is reported as at most 10 nM and the inhibition at 10 µM (human Edg-1 (S1P1)) is reported as 99.2%.
Work on CCn1c(Oc2cccc(C(=O)O)c2)nnc1[C@@H](C)NS(=O)(=O)c1ccc(Cl)c(Cl)c1 [Compound 113, 3-[5-[(R)-1-(3,4-Dichlorobenzenesulfonylamino)-ethyl]-4-ethyl-4H-[1,2,4]triazol-3-yloxy]-benzoic acid] yielded a melting point of 183 to 185 °C and an inhibition at 10 µM (human Edg-1 (S1P1)) of 74.2%.

Source: patent publication US8022091B2, “Triazole derivative” (Taisho Pharmaceutical Co., Ltd., priority 2006, dated 2011)
